Our source for the melting point values is a melting point compilation (Tetko et al.; mined from patent text by program, amines drawn as free bases though some values may be those of a salt).

Molecules are shown by their SMILES.

`C#CCn1c(-c2cc(Cl)nc(Cl)c2)nc(O)c(CC)c1=O` came in with a melting point of 200 to 202 °C.
The compound `CC1(C)OCCC(=NO)c2ccccc2NC1=O` yielded a melting point of 205 to 206 °C.
`CCCCCOC(=O)c1cc(O)c2c(n1)c(C)cc1c(O)cc(C(=O)OCCCCC)nc12` displayed a melting point of 137 to 139 °C.
Consider `O=Cc1c(Br)n(C2OC(CO)C(O)C2O)c2cc(Cl)c(Cl)cc12` (configuration not stated), for which the melting point lay within 210 to 211 °C.
`CC1COCc2nc3c(N)nc4cc(C=CC(=O)N(C)C)ccc4c3n21` (configuration not stated) came in with a melting point of more than 250 °C.
As for `N#Cc1cnc2sc(-c3cccc(C=O)c3)cc2c1Cl`, the melting point was more than 250 °C.
In the case of `COC(=O)c1cncn1C1c2ccccc2C=CC1(C)C` (configuration not stated) it was 60 to 61 °C; in that of `CCOC(=O)/C(C)=C/CC[C@@H](C)[C@H]1CC[C@@]2(C)C3=CCC4C(C)(C)C(=O)CC[C@]4(C)C3=CC[C@]12C` (some centres not stated), 53 to 55 °C.
In the case of `c1cncc(CCNc2nc(-c3cccs3)ncc2-n2cccn2)c1` it was 133 to 134 °C.
The compound `COc1ccc2nc(NC(=O)C(CC3CCCC3)c3ccc(S(=O)(=O)NCc4ccccc4F)cc3)sc2n1` (configuration not stated) registered a melting point of 238 to 240 °C.
Take `CON(c1ccc([N+](=O)[O-])cc1C#N)S(=O)(=O)c1ccc(Cl)c(C(F)(F)F)c1`: the melting point lay within 140 to 142 °C.
The value for `CN(C)C1(Cc2ccccc2)CCC(=O)CC1` was 80 to 84 °C; that for `CCOc1ccccc1OC(c1ccccc1)C(O)CO` (configuration not stated) was 68 to 70 °C; that for `COC(=O)C(=NO)N(C)c1cccc(C(F)(F)F)c1` was 131 °C.
In the case of `COC(=O)c1ccc(Cl)cc1NC(=O)CSc1ccc(O)cc1`, the melting point lay in the range of 165 to 168 °C.
The value for `CCC1(COCc2ccccc2Cl)CCC(C)(C(N)=S)O1` (configuration not stated) was 78 to 80 °C; that for `CCN(CC)CCNc1nc(N2CCCC2)nc2ccccc12` was 87 to 90 °C; that for `CC(=O)C1=CCC2C3CCC4=CC(=O)CCC4(C)C3CCC12C` (configuration not stated) was 185 to 190 °C.
Regarding `CCOC(=O)c1c(Nc2cc(F)ccc2N)sc2ccccc12`, the melting point fell in the range of 141 to 142 °C.
The compound `C=CCC1C(OCc2ccccc2)CC(OCc2ccccc2)C1OS(=O)(=O)c1ccc(C)cc1` (single isomer, unassigned; (-)) had a melting point of 57 to 58 °C.
The value for `CC(C)(C)c1ccc(Cn2cc(C(=O)C(=O)O)c3ccc(-c4ccc(OC(F)(F)F)cc4)cc32)cc1` was 183 to 186 °C.
Compound `Nc1ncc(C2CCN(c3ccc(Cl)cc3)CC2)c(N)n1` came in with a melting point of 254 to 255 °C.
Compound `CC1(C)CCC(C)(C)c2cc(C#CCO)ccc21` displayed a melting point of 84 to 85 °C.
The value for `O=C(O)Cc1c(C(=O)c2cc3ccccc3cn2)[nH]c2ccc(Cl)cc12` was 239 to 240 °C; that for `O=C(Nc1ccccc1OCCCBr)c1cccc2[nH]ccc12` was 145 °C.
Turning to `CSC(=O)N(C)c1nnc(-c2cccnc2)s1`, the melting point was in the range of 192 to 194 °C.
Compound `COC(=O)c1cc(S(C)=O)ccc1OC` (configuration not stated) had a melting point of 64 to 66 °C.
In turn, `Cc1cc(NC(=O)C(=O)N2CCCCC2)cc(C)c1S(=O)(=O)C[N+](=O)[O-]` showed a melting point of 169 to 170 °C.
With `Cc1ccccc1C=CCN1CCc2nc(N)sc2CC1`, the melting point lay within 112 to 115 °C.
`c1cc(-c2cccc3ncoc23)c2ocnc2c1` showed a melting point of 226 to 228 °C.
With `CCOc1cc(-c2cc(C(F)F)n3ncc(C(=O)Nc4cccc(S(=O)(=O)NC5CC5)c4)c3n2)ccc1C(F)(F)F`, the melting point amounted to 213 °C.
Compound `Cn1cc(-c2cccc(C(F)(F)F)c2)c(=O)n1-c1cccc(Cl)c1` returned a melting point of 130 to 131 °C.
In turn, `Cc1nc(N2C[C@@H](C)N(Cc3ccc(F)cc3)C2=O)sc1C(=O)NCc1cccnc1` returned a melting point of 135 to 136 °C.
As to `CC(=O)c1cccc(NC(=O)CCCC(=O)Nc2cccc(C(C)=O)c2)c1`, the melting point fell in the range of 174 to 175 °C.
The value for `Cn1c(=O)c2c(nc(Cl)n2Cc2ccccc2C#N)n(C)c1=O` was 222 to 224 °C; that for `O=C1NC(=O)c2cc(Nc3ccccc3I)c(Nc3ccccc3I)cc21` was 108 to 110 °C.
Regarding `CCNC(=O)Nc1nc2nc(NCCCN3CCN(C)CC3)ncc2cc1-c1c(Cl)cccc1Cl`, the melting point fell in the range of 82 to 90 °C.
`O=C(CNC(=O)c1cc([N+](=O)[O-])ccc1Cl)OCc1ccccc1` returned a melting point of 116 to 118 °C.
On to `O=S(=O)(Cc1n[nH]c(-c2cccs2)n1)c1ccccc1`, for which the melting point was 191 to 193 °C.
As to `Cc1c(Cl)cc(NC(=O)CCl)c(O)c1Cl`, the melting point is 149 °C.
The value for `Cn1ncc(C(=O)NC2COC2)c1C(=O)Nc1ccn2nc(-c3ccccc3)nc2c1` was more than 250 °C; that for `CC(C)OC(=O)c1cc(-n2c(=O)c3c(n(C)c2=O)OCC3)c(F)cc1Cl` was 170 to 173 °C.
Regarding `O=C(O)C1C2CCC(O2)C1C(=O)NCCN1C(=O)NC(c2ccccc2)(c2ccccc2)C1=O` (configuration not stated), the melting point lay in the range of 208 to 210 °C.
`O=C(O)c1ccc(N(CCn2ccnc2)c2ccc(F)cc2)cc1-c1ccc(F)cc1` gave a melting point of 195 to 200 °C.
Regarding `N#CC(Cc1ccccn1)(c1ccc(F)cc1)c1ccc([N+](=O)[O-])c(C(F)(F)F)c1` (configuration not stated), the melting point is 118 to 119 °C.
Regarding `C[C@@H](Cn1ccc2ccc3ncccc3c21)NC(=O)OC(C)(C)C`, the melting point turned out to be 185 °C.
Consider `COc1cc(OCC(CO)CO)c(C=CC(=O)c2ccc(S(N)(=O)=O)cc2)cc1-c1cccs1`, for which the melting point is 123 to 124 °C.
The value for `CN1CC(=O)NC1=NC(=O)Nc1cccc(Cl)c1` was 180 °C; that for `Cc1nc(-c2ccccc2)cc(-c2ccc([N+](=O)[O-])cc2)c1C(=O)O` was 260 to 263 °C.
In turn, `c1ccc(-c2cn(-c3ncc(C4CCCCC4)c4ccccc34)cn2)cc1` gave a melting point of 169 to 170 °C.
Turning to `CNC(=O)CCc1nc(-c2ccc(Cl)cc2)co1`, the melting point lay within 169 to 170 °C.
The value for `CNC1=NS(=O)(=O)N=C1NCCSCc1csc(N(C)C)n1` was 227 to 229 °C.
Consider `COc1ccc2c(c1)NC1(CCN(C)CC1)c1cccn1-2`, for which the melting point was in the range of 124 to 125 °C.
The value for `c1ccc(CN2CCC(NCc3ccc(OCc4ccnc5ccccc45)cc3)CC2)cc1` was 72 to 75 °C; that for `COC(=O)c1ccc(-c2oc3cc(NS(C)(=O)=O)ccc3c(=O)c2OS(C)(=O)=O)cc1` was 250 °C; that for `O=C(Cc1ccccc1F)N1C(=O)OC[C@H]1c1ccccc1` was 110 to 111 °C.
Regarding `COc1ccc2[nH]c(C3CCC(c4ccccc4)(N(C)C)CC3)c(C)c2c1` (configuration not stated), the melting point fell in the range of 156 to 163 °C.
Compound `CCOC(=O)c1cnc2n(c1=O)CCCCC2` registered a melting point of 82 to 84 °C.
The value for `O=Cc1cccc(CSCCNC(=O)c2c(Cl)cccc2Cl)c1` was 63 to 65 °C; that for `CC(=O)N(CCN1CCNC1=C(C#N)C#N)Cc1ccc(CN2CCCCC2)o1` was 166 to 167 °C.
`Cn1cccc1-c1ccc2c(c1)C(C)(C)OC(=O)N2` displayed a melting point of 230 °C.
In turn, `CC(=O)Nc1cccc2c1C(=O)c1c-2n[nH]c1-c1cccnc1` displayed a melting point of more than 300 °C.
As to `Cc1nnc2n1-c1ccc(C#C[Si](C)(C)C)cc1C(c1ccccc1)=NC2`, the melting point was 229 to 233 °C.
For the compound `COC(=O)CCc1cc2c(c(C(C)(C)C)c1)OC(=O)C2c1cc(C)ccc1C` (configuration not stated), the melting point came to 80 °C.
In the case of `COc1ccc(-c2[nH]nc3c2C(=O)c2c(NC(=O)NNC(=O)c4cc(N)cc(N)c4)cccc2-3)cc1`, the melting point was more than 300 °C.
In the case of `O=c1c2c[nH]c3c(c-2nn1-c1ccccc1)COCC3` it was 304 to 306 °C.
Turning to `O=c1cccccc1N1CCN(c2cccccc2=O)CC1`, the melting point lay in the range of 184 to 186 °C.
Compound `CCCCN1CNC(=O)NC1=O` showed a melting point of 205 to 207 °C.
`COc1ccc(Nc2ccc(F)cc2)cc1` showed a melting point of 46 to 48 °C.
The compound `CCOC(=O)c1cc(=O)c2cc(O)ccc2s1` returned a melting point of 217 to 218 °C.
In turn, `Cc1ccc(-c2ccccn2)cc1S(N)(=O)=O` had a melting point of 173 to 176 °C.
Take `CCOC(=O)c1c(CN(CC)CC)nc2cc(OC)c(OC)cc2c1-c1ccc(Cl)c(Cl)c1`: the melting point was 157 to 158 °C.
With `CC(C)(C)OC(=O)N1CCN(O)CC1`, the melting point was in the range of 95 to 97 °C.
`O=C(c1c(Cl)cccc1Cl)N(C(=O)c1c(Cl)cccc1Cl)c1cc(-c2ccc(Cl)cc2)on1` gave a melting point of 219 to 223 °C.
The value for `Fc1ccc(C(c2ccccc2Cl)N2CCN(CCCOC(c3ccccc3)c3ccccc3)CC2)cc1` (configuration not stated) was 98 to 99 °C.
The compound `Cc1ccccc1S(=O)(=O)OC1C2C(C(=O)N1Cc1ccc3c(c1)OCO3)C(c1ccc(Br)cc1)N(C)C2(C)C` (configuration not stated) had a melting point of 172 to 173 °C.
`Cc1ccc2c(=O)c3cc(F)ccc3sc2c1`: the melting point is 166 to 170 °C.
Regarding `CCC(=Cc1cn(CC(=O)N(C)CCc2ccccc2)c2ccc(OCc3ccccc3)cc12)C(=O)O`, the melting point is 205 to 207 °C.
The value for `CCOC(=O)c1c(C(C)Cl)nc2c(C(F)(F)F)cccc2c1O` (configuration not stated) was 104 °C.
In turn, `CCC(NC(=S)Nc1nc(C)cs1)C(C)C` (configuration not stated) had a melting point of 164 to 166 °C.
Compound `CC(C)(C)C(=O)Nc1ccccc1CC1NCCc2ccccc21` (configuration not stated) gave a melting point of 168 °C.
`COc1ccc(-c2cc(C(=O)O)c(=O)n(CC3CC3)n2)cc1` had a melting point of 154 to 155 °C.
`O=c1cnc2cc(C(c3cccc(Cl)c3)n3ccnc3)ccc2[nH]1` (configuration not stated): the melting point stood at 253 °C.
`CCOC(=O)c1ccc(-c2ccc(-c3ccc(OC)cc3)c(-c3ccc4c(c3)C(C)(C)CCC4(C)C)c2)cc1` showed a melting point of 112 to 115 °C.
`COc1cc2c(c3c1OC(C)(C)C3)C(c1ccc(=O)n(-c3cccc(-c4ccccn4)n3)c1)=NC(C)(C)C2` yielded a melting point of 231 to 234 °C.
The compound `Cc1ccc(-c2cccc(/C=C/C(=O)Nc3ccc(C(O)c4ccccn4)cc3)c2)cc1` (configuration not stated) showed a melting point of 162 to 165 °C.
The compound `CSCC(=O)C(Cc1cccc2ccccc12)NC(=O)C(CC(C)C)NC(=O)OCc1ccccc1` (configuration not stated) displayed a melting point of 77 to 80 °C.
